“And” between values parts separate entries of the source, which are not always exact repeats. Equal entries are not always repeated.

Data set [1] can be described thus: Lipophilicity, partition between 1-octanol and PBS. The following applies: 1-octanol/PBS pH 7.4, shake-flask, n = 6. The class given is physicochemical. The protocol: The lipophilicity of ^18F-FPBT and ^18F-FPBT-Ox was determined by a conventional partition method between 1-octanol and phosphate buffered saline (PBS), pH 7.4. 1-Octanol was presaturated with PBS before use. The radiotracer (∼2 KBq) was added to a mixture of PBS (200 μL) and 1-octanol (200 μL) in a 1.5 mL Eppendorf vial (n = 6). The mixture was vigorously agitated at rt for 5 min and then centrifuged at 3000 g for 10 min. A 100 μL aliquot from each layer was drawn for measurement in a gamma counter. The LogDoct/PBS was calculated as follows: log [(cpm in the 1-octanol layer – cpm 1-octanol blank)/(cpm in the PBS layer – cpm PBS blank)].

A short description of data set [2]: Serum stability at 37 °C by radio-HPLC. The format is in vitro ADME, rat. To be noted: serum, 37 °C, up to 30 min. The protocol: ^18F-FPBT (∼3.0 MBq) in 5% ethanol in PBS (200 μL) containing sodium ascorbate (0.01 mg/mL) was incubated with rat serum (200 μL) at 37 °C for 1 min or 1 h. Subsequently, plasma proteins were precipitated from the supernatant with ice-cold acetonitrile (1.5 mL), and samples were centrifuged (3 min, 13 000 rpm). The residual activity in the pellet was <3%. The supernatant (∼2.0 MBq, 1.0 mL) was analyzed by radio-HPLC. HPLC method: ZORBAX column (300SB-C18, semipreparative 9.4 mm × 250 mm, 5 μm) using acetonitrile and water as the mobile phase, at a flow rate of 3.0 mL/min. The following gradient was used: from 50% to 90% acetonitrile in 15 min; kept at 90% acetonitrile for 10 min; from 90 to 50% acetonitrile in 5 min.
^18F-FBPT-Ox (2–4 MBq, 50 μL in 10% EtOH/PBS) was added to serum (500 μL) and incubated at 37 °C for 5, 15, and 30 min, respectively. Plasma proteins were precipitated with a 5-sulfosalicylic acid water solution (10% w/v, 1 mL) and centrifuged (3 min, 13 000 rpm). The supernatant was removed and diluted with 500 μL of DI H2O and analyzed via radio-HPLC. A control experiment was performed where ^18F-FBPT-Ox (2 MBq, 50 μL in 10% EtOH/PBS) was added to 500 μL of PBS, incubated at 37 °C for 30 min. A 5-sulfosalicylic acid water solution (10% w/v, 1 mL) was added, thoroughly mixed, then diluted with 500 μL of DI H2O, and analyzed via radio-HPLC. […]

A short description of data set [3]: Post-mortem biodistribution in healthy rats. The format is in vivo, Wistar rats. The following applies: iv; for Ex vivo biodistribution, Blood / Ex vivo biodistribution, Bone / Ex vivo biodistribution, Brain / Ex vivo biodistribution, Heart / Ex vivo biodistribution, Kidney / Ex vivo biodistribution, Large Intestine / Ex vivo biodistribution, Liver / Ex vivo biodistribution, Lung / Ex vivo biodistribution, Muscle / Ex vivo biodistribution, Small Intestine / Ex vivo biodistribution, Spleen / Ex vivo biodistribution, Urine: healthy rats, mean ± SD, n = 3. The protocol:
Wistar rats (male, 319 ± 20 g) were injected intravenously via the tail vein with either ^18F-FPBT (1.0 ± 0.4 MBq) or ^18F-FPBT-Ox (1.1 ± 0.5 MBq). The animals were sacrificed by cervical dislocation at 1, 5, or 30 min postinjection (n = 3/group). Organs and tissues of interest were harvested and weighed, and the radioactivity was measured in a gamma counter. Organ uptake was calculated as the percentage injected dose per gram of tissue mass (% ID/g). Data are reported as mean ± SD.

Data set [4] can be described thus: In vivo blood stability of 18F-FPBT-Ox. Also noted: species or system Wistar rats. The following applies: rats, plasma radio-HPLC with gamma counting, n = 2. On the procedure: Wistar rats (male, 320 ± 20 g) were intravenously injected with ^18F-FPBT-Ox (∼15 MBq). The animals were sacrificed by cervical dislocation at 30 min postinjection (n = 2). Blood samples were collected in heparin-coated tubes. After centrifugation (5 min, 13 000 rpm), the plasma (∼1 mL) was separated. Plasma proteins were subsequently precipitated with 5-sulfosalicylic acid water solution (10% w/v, 1.5 mL) and centrifuged (5 min, 13,000 rpm). The supernatant was removed and diluted with 500 μL of DI H2O and analyzed via radio-HPLC. HPLC method: ZORBAX column (300SB-C18, semipreparative 9.4 mm × 250 mm, 5 μm). Solvent A: H2O. Solvent B: MeCN. Flow rate: 3.0 mL/min; 0–5 min, 0% of B; 5–20 min, 0–50% of B; 20–30 min, 50–0% of B. HPLC eluent was collected every minute in 30 vials separately and submitted to gamma counting. The counts per minute in each vial were plotted against the corresponding time point.

Data set [5] can be described thus: Rat model of doxorubicin-induced cardiotoxicity: body weight and echocardiography. The class given is in vivo, Wistar rats. The following applies: rats. The protocol: (§1) Male Wistar rats (280–300 g) were used in all experiments. Subcutaneous 7 day osmotic pumps (Alzet), containing either doxorubicin (Cambridge Bioscience, 30 mg/kg cumulative dose) or vehicle (sterile 0.9% NaCl), were inserted into rats under 2% isoflurane in 100% oxygen.
In order to assess cardiac function, all rats were subjected to a cardiac ultrasound (Vevo 770TM, VisualSonics) 1 day prior to and on day 6 of osmotic pump implantation. Rats were anesthetized with 2% isoflurane in 100% oxygen and maintained at 37 °C via a homeothermic platform and rectal thermometer. High-resolution parasternal left ventricle (LV) long axis M-mode and B-mode images were obtained using an RMV710B transducer. Images were analyzed offline using Vevo Software to determine LV function. Data are reported as mean ± SD. Statistical analysis was performed using one-way ANOVA with Tukey’s multiple comparisons test.

A short description of data set [6]: Ex vivo heart biomarkers of oxidative stress. The format is in vivo, Wistar rats. To be noted: hearts harvested after PET imaging, n = 4. On the procedure: as §1
Total glutathione concentration was determined by an enzyme recycling method.[21] Lipid peroxidation was evaluated using the lipid peroxidation (MDA) assay kit from Sigma-Aldrich, which measures the colorimetric product that results from the reaction of malondialdehyde (MDA) present in the tissue with thiobarbituric (TBA) acid. Iron content was measured in isolated mitochondria and cytosolic fractions using the iron colorimetric assay kit from BioVision following the manufacture’s protocol.

In general, LogD refers to lipophilicity at a set pH, counting ionised and neutral species. Lower therefore signals a more hydrophilic compound. On to `[18F]CCC[n+]1c(-c2ccccc2)sc2ccccc21` [^18F-FPBT-Ox], for which the log distribution coefficient (LogD) in data set [1] is −1.00 ± 0.04 and ~−1. Besides, the “Serum stability (in words)” value in data set [2] is “excellent serum stability”. Further, in data set [3] (healthy Wistar rats), the “Route of clearance / excretion, in words” value was “quickly cleared by the kidneys and excreted through the urine”; the “Uptake by major organs (brain, heart, lung, spleen), in words” value was “significantly reduced uptake”. For the same molecule, in data set [3] (1 min), the “Ex vivo biodistribution, Blood” value amounted to 0.36 ± 0.12 % ID/g; the “Ex vivo biodistribution, Bone” value turned out to be 0.16 ± 0.14 % ID/g; the “Ex vivo biodistribution, Brain” value is given as 0.23 ±0.19 % ID/g; the “Ex vivo biodistribution, Heart” value was determined as 0.39 ± 0.25 % ID/g. For the same molecule, in data set [3] (1 min), the “Ex vivo biodistribution, Kidney” value is reported as 4.22 ± 0.20 % ID/g; the “Ex vivo biodistribution, Large Intestine” value is 0.12 ± 0.07 % ID/g; the “Ex vivo biodistribution, Liver” value is reported as 1.49 ± 0.65 % ID/g; the “Ex vivo biodistribution, Lung” value worked out at 0.31 ±0.05 % ID/g. In data set [3] (1 min), the “Ex vivo biodistribution, Muscle” value is given as 0.06 ± 0.02 % ID/g; the “Ex vivo biodistribution, Small Intestine” value is listed as 0.28 ± 0.20 % ID/g; the “Ex vivo biodistribution, Spleen” value is 0.26 ± 0.13 % ID/g; the “Ex vivo biodistribution, Urine” value worked out at 1.39 ± 1.21 % ID/g. Also, in data set [3] (5 min), the “Ex vivo biodistribution, Blood” value is given as 0.15 ± 0.08 % ID/g; the “Ex vivo biodistribution, Bone” value amounted to 0.09 ± 0.03 % ID/g; the “Ex vivo biodistribution, Brain” value was 0.14 ± 0.11 % ID/g; the “Ex vivo biodistribution, Heart” value is listed as 0.18 ± 0.06 % ID/g. In data set [3] (5 min), the “Ex vivo biodistribution, Kidney” value turned out to be 1.15 ± 0.75 % ID/g; the “Ex vivo biodistribution, Large Intestine” value is reported as 0.10 ± 0.04 % ID/g; the “Ex vivo biodistribution, Liver” value was found to be 1.17 ± 0.37 % ID/g; the “Ex vivo biodistribution, Lung” value turned out to be 0.21 ± 0.05 % ID/g. In addition, in data set [3] (5 min), the “Ex vivo biodistribution, Muscle” value is 0.05 ± 0.02 % ID/g; the “Ex vivo biodistribution, Small Intestine” value was found to be 1.59 ± 1.93 % ID/g; the “Ex vivo biodistribution, Spleen” value stood at 0.11 ± 0.04 % ID/g; the “Ex vivo biodistribution, Urine” value is recorded as 9.29 ± 3.02 % ID/g. Moreover, in data set [3] (30 min), the “Ex vivo biodistribution, Blood” value came out at 0.09 ± 0.04 % ID/g; the “Ex vivo biodistribution, Bone” value worked out at 0.12 ± 0.06 % ID/g; the “Ex vivo biodistribution, Brain” value was 0.07 ± 0.07 % ID/g; the “Ex vivo biodistribution, Heart” value worked out at 0.11 ± 0.06 % ID/g. Further, in data set [3] (30 min), the “Ex vivo biodistribution, Kidney” value is listed as 0.59 ± 0.31 % ID/g; the “Ex vivo biodistribution, Large Intestine” value is listed as 0.05 ± 0.04 % ID/g; the “Ex vivo biodistribution, Liver” value is listed as 0.90 ± 0.59 % ID/g; the “Ex vivo biodistribution, Lung” value was 0.12 ± 0.07 % ID/g. In data set [3] (30 min), the “Ex vivo biodistribution, Muscle” value amounted to 0.03 ± 0.00 % ID/g; the “Ex vivo biodistribution, Small Intestine” value worked out at 0.63 ± 0.64 % ID/g; the “Ex vivo biodistribution, Spleen” value turned out to be 0.07 ± 0.05 % ID/g; the “Ex vivo biodistribution, Urine” value was 15.80 ± 12.98 % ID/g. Also, the “Time stable in blood post IV injection” value in data set [4] is given as “at least 30 min”.
The molecule `COc1cccc2c1C(=O)c1c(O)c3c(c(O)c1C2=O)C[C@@](O)(C(=O)CO)C[C@@H]3O[C@H]1C[C@H](N)[C@H](O)[C@H](C)O1` [doxorubicin] showed a Body weight decrease in data set [5] (doxorubicin 30 mg/kg cumulative dose by 7 day osmotic pump, implantation to day 7, n = 6) of 16.2 ± 8.9%. The “Reduction of left ventricular ejection fraction at day 6 compared to baseline at day 0” value in data set [5] (doxorubicin 30 mg/kg cumulative dose by osmotic pump, echocardiography) turned out to be 15%. In data set [5] (echocardiography), the “Left ventricular ejection fraction compared to time-matched vehicle controls at day 6” value is “cannot detect the statistical difference”. Also, in data set [6], the “Cardiac oxidative stress biomarkers (glutathione, maldonaldehyde, mitochondrial iron, cytosolic iron) compared to saline control group” value is “marginally higher”.

For the origin of these results see PMC8728736, “A Reactivity-Based ^18F-Labeled Probe for PET Imaging of Oxidative Stress in Chemotherapy-Induced Cardiotoxicity” (Molecular Pharmaceutics, 2021).
